Assay [1] deals with human dopamine D2L receptor (Homo sapiens, UniProt P14416). The assay can be described thus: Dopamine D2L radioligand binding ([3H]Spiperone). The note with it: compound at 1 μM. An excerpt: Non-specific binding was estimated in the presence of […] Haloperidol. Receptor proteins were filtered and washed, the filters were then counted to determine [^3H]Spiperone specifically bound. […] Biochemical assay results are presented as the percent inhibition of specific binding in Table 9.
Chain of human dopamine D2L receptor (P14416 whole entry): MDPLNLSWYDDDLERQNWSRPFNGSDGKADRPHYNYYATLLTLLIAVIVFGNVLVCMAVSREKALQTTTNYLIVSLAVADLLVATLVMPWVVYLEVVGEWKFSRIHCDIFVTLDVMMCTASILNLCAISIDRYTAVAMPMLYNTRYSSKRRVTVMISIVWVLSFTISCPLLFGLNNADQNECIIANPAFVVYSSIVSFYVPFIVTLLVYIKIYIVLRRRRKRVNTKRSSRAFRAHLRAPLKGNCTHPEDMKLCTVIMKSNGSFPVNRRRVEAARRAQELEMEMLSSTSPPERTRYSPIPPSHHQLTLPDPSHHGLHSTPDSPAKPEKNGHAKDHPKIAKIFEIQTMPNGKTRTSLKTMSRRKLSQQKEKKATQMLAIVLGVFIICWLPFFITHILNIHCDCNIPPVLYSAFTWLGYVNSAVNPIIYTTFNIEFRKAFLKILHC

Another assay concerns the target histamine receptor H1 (Homo sapiens, UniProt P35367). The assay can be described thus: Histamine H1 radioligand binding ([3H]Pyrilamine). The note with it: for inhibition at 1 µM: read-out: Histamine Binding (1 μM) H1, percent inhibition of specific binding, 1 μM. A digest of the protocol: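 Values are percent inhibition of specific [3H]pyrilamine (1.2 nM) binding with compounds at ≤1 μM (1% DMSO vehicle); 180 min incubation at 25 °C, pH 7.4 Tris buffer, on CHO-expressed human H1 receptor; 1 μM pyrilamine defined nonspecific binding, bound ligand counted after filtration.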

Assay [2] has as its target T1, human recombinant serotonin (5-Hydroxytryptamine) 5-HT6 receptor (Homo sapiens, UniProt P50406).
T1 construct: expressed in transfected cells; host or cells: human HeLa cells
Kind of assay: Serotonin 5-HT6 radioligand binding ([3H]LSD). The note with it: read-out: Inhibition of ligand binding, Serotonin 5-HT6 (percent inhibition of specific binding); for inhibition at 1 µM: compound at 1 μM. Here is the method:
Compounds of the invention were incubated with 1.5 nM [3H]Lysergic acid diethylamide (LSD) for 120 min. at 37° C. […] Receptor proteins were filtered and washed, the filters were then counted to determine [3H]LSD specifically bound. Compounds were screened at 1 μM or lower, using 1% DMSO as vehicle. Biochemical assay results are presented as the percent inhibition of specific binding in Table 10.

The target in assay [3] is T2, human recombinant serotonin (5-Hydroxytryptamine) 5-HT2C receptor (Homo sapiens, UniProt P28335).
T2 construct: expressed in transfected cells; host or cells: Chinese hamster ovary (CHO-K1) cells
T2 sequence (P28335 33-458): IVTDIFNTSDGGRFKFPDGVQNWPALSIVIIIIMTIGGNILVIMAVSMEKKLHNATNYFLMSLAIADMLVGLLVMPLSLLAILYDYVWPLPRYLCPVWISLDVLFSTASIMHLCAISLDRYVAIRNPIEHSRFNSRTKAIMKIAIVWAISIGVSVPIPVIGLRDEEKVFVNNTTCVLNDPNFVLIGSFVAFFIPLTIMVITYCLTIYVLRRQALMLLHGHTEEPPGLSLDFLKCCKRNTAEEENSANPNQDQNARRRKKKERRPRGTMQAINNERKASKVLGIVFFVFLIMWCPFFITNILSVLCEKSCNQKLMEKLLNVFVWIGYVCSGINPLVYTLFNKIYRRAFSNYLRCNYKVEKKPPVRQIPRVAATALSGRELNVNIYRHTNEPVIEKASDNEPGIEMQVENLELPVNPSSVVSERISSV
The assay can be described thus: Serotonin 5-HT2C radioligand binding ([3H]Mesulergine). The note with it: read-out: Inhibition of ligand binding, Serotonin 5-HT2C (percent inhibition of specific binding); for inhibition at 1 µM: compound at 1 μM. A digest of the protocol: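 Compounds tested at 1 μM or lower (1% DMSO vehicle) for displacement of 1 nM [3H]Mesulergine over 60 min at 25° C. Specific binding determined by filtration counting, with 1 μM Mianserin defining non-specific binding; values are percent inhibition.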

Assay [4] concerns the target T3, human recombinant histamine H2 receptor (Homo sapiens, UniProt P25021).
T3 construct: expressed in transfected cells; host or cells: Chinese hamster ovary (CHO) K1 cells
Kind of assay: Histamine H2 radioligand binding ([125I]Aminopotentidine). Particulars: read-out: Histamine Binding (1 μM) H2, percent inhibition of specific binding, 1 μM. As to the method:
To evaluate in radioligand binding assays the activity of compounds of the invention, human recombinant histamine H2 receptor expressed in Chinese hamster ovary (CHO) K1 cells (Ruat, M., Proc. Natl. Acad. Sci. USA. 87(5):1658, 1990) in a 50 mM Phosphate buffer, pH 7.4 was used. Compounds of the invention were incubated with 0.1 nM [^125I]Aminopotentidine for 120 min. at 25° C. Non-specific binding was estimated in the presence of 3 μM Tiotidine. Receptor proteins were filtered and washed, the filters were then counted to determine [^125I]Aminopotentidine specifically bound.

Assay [5] deals with T4, human recombinant serotonin (5-Hydroxytryptamine) 5-HT2A receptor (Homo sapiens, UniProt P28223).
T4 construct: expressed in transfected cells; host or cells: Chinese hamster ovary (CHO-K1) cells
T4 sequence (P28223 whole entry): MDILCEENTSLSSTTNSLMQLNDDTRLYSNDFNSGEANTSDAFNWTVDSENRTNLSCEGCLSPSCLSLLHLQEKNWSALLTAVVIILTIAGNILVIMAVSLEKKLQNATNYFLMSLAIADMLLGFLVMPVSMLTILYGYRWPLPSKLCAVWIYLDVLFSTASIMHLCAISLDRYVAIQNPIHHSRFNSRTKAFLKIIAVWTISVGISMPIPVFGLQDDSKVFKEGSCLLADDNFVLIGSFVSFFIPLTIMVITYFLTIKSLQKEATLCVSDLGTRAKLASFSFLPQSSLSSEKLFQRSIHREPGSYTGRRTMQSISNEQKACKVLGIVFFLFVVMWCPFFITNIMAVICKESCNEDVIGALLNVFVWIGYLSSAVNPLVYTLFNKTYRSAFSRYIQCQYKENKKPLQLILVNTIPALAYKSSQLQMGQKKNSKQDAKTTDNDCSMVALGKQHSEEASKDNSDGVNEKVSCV
The assay can be described thus: Serotonin 5-HT2A radioligand binding ([3H]Ketanserin). Particulars: for inhibition at 1 µM: read-out: Inhibition of ligand binding, Serotonin 5-HT2A (percent inhibition of specific binding), compound at 1 μM. Here is the method:
Compounds of the invention were incubated with 0.5 nM [^3H]Ketanserin for 60 min. at 25° C. Non-specific binding was estimated in the presence of 1 μM Mianserin. Receptor proteins were filtered and washed, the filters were then counted to determine [^3H]Ketanserin specifically bound.

Assay [6] addresses human recombinant serotonin (5-Hydroxytryptamine) 5-HT7 receptor (Homo sapiens, UniProt P34969). Kind of assay: Serotonin 5-HT7 radioligand binding ([3H]LSD). Particulars: compound at 1 μM; read-out: Inhibition of ligand binding, Serotonin 5-HT7 (percent inhibition of specific binding). An excerpt: Receptor proteins were filtered and washed, the filters were then counted to determine [^3H]LSD specifically bound.

Setting [7] is: percent inhibition of specific binding, read-out: Inhibition of ligand binding, Dopamine D2L.
The mark [8] stands for this setting: […] [3H]Spiperone, read-out: Inhibition of ligand binding, Dopamine D2L (percent inhibition of specific binding).

Read-outs that look alike come from different tables or passages of the source.

Chain of human recombinant serotonin (5-Hydroxytryptamine) 5-HT7 receptor (P34969 whole entry): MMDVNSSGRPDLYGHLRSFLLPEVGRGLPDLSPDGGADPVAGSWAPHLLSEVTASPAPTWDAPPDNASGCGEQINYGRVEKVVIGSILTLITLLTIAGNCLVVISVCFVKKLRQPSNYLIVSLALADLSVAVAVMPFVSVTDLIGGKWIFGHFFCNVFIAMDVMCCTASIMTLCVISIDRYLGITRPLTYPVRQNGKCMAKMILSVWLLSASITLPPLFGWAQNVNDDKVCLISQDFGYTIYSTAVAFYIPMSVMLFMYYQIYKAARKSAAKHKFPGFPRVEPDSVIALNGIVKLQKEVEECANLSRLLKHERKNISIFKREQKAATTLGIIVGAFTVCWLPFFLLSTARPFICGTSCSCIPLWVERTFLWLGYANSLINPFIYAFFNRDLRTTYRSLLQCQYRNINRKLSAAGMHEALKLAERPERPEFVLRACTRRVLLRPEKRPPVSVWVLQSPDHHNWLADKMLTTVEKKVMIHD
Chain of histamine receptor H1 (P35367 whole entry): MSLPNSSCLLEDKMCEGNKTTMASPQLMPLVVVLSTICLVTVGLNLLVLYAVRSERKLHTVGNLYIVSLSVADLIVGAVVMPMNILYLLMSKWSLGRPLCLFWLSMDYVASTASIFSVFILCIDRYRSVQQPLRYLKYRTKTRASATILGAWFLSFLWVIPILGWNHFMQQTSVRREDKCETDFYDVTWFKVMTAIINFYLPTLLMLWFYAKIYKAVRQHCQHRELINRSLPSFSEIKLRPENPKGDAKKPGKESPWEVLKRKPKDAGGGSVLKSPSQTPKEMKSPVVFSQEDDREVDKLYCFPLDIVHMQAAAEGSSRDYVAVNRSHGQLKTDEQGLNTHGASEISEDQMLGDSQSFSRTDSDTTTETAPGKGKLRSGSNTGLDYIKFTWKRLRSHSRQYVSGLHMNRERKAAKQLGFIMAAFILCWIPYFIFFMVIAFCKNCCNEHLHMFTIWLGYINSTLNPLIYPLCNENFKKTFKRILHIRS
T3 sequence (P25021 whole entry): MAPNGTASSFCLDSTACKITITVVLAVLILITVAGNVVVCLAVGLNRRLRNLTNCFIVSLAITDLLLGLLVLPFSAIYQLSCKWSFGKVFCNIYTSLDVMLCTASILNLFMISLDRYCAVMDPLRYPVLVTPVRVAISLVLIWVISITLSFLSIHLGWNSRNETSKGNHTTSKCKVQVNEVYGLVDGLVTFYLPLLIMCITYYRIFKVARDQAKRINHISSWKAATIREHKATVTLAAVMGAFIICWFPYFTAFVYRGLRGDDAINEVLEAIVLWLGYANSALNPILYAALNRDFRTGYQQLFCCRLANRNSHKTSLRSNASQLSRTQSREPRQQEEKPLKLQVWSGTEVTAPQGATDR
T1 sequence (P50406 whole entry): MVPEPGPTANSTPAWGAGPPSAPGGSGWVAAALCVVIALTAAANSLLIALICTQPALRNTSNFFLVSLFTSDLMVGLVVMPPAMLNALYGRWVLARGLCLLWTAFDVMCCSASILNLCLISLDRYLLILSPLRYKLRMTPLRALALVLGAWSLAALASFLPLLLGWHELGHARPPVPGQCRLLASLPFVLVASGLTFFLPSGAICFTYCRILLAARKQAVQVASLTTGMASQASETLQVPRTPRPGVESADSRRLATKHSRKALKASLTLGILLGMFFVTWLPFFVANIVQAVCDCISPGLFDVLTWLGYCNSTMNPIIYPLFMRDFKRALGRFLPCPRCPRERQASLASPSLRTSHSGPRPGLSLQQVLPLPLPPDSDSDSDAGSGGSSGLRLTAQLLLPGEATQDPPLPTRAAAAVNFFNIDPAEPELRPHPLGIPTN

As a reminder, the inhibition is the relative decrease from the control value, in per cent. Regarding `C/C(=C\n1c2c(c3ccc(Cl)cc31)CN(C)CC2)c1ccncc1` [Compound 219, (E)-7-chloro-2-methyl-5-(2-(pyridin-4-yl)prop-1-enyl)-2,3,4,5-tetrahydro-1H-pyrido[4,3-b]indole], the “Inhibition of ligand binding, Dopamine D2L” value in assay [1] (percent inhibition of specific binding, 1 µM) is 97%. Moreover, the inhibition at 1 µM in assay [1] (setting [7]) was determined as 96%; on histamine receptor H1, 60%; in assay [2], 102%; in assay [3], 98%; in assay [4] it was 82%; in assay [5], 101%. The inhibition at 1 µM in assay [6] is 94%. The “Histamine Binding (1 μM) H1, percent inhibition of specific binding” value on histamine receptor H1 (1 μM) is given as 66%. For the same compound, the inhibition at 0.1 µM in assay [2] (compound at 0.1 μM) was 96%; in assay [3] (compound at 0.1 μM), 94%; in assay [5] (read-out: Inhibition of ligand binding, Serotonin 5-HT2A (percent inhibition of specific binding), compound at 0.1 μM), 100%.

Take `C/C(=C\n1c2c(c3ccc(C(F)(F)F)cc31)CN(C)CC2)c1ccc(F)cc1` [Compound 229, (E)-5-(2-(4-fluorophenyl)prop-1-enyl)-2-methyl-7-(trifluoromethyl)-2,3,4,5-tetrahydro-1H-pyrido[4,3-b]indole]: the inhibition at 1 µM in assay [1] (setting [7]) turned out to be 100%; on histamine receptor H1 it was 54%; in assay [2], 107%; in assay [3] it was 100%; in assay [4], 96%; in assay [5], 100%. The inhibition at 1 µM in assay [6] is 89%.

Take `C/C(=C\n1c2c(c3cc(Cl)ccc31)CN(C)CC2)c1cccc(F)c1` [Compound 234, (E)-8-chloro-5-(2-(3-fluorophenyl)prop-1-enyl)-2-methyl-2,3,4,5-tetrahydro-1H-pyrido[4,3-b]indole]: the inhibition at 1 µM is 73% in assay [1] (setting [7]); 69% at histamine receptor H1; 101% in assay [2]; 102% in assay [3]; 94% in assay [4]; 100% in assay [5]. Besides, in assay [6], the inhibition at 1 µM stood at 99%.

In the case of `C/C(=C\n1c2c(c3cc(Cl)ccc31)CN(C)CC2)c1cc(Cl)cc(Cl)c1` [Compound 215, (E)-8-chloro-5-(2-(3,5-dichlorophenyl)prop-1-enyl)-2-methyl-2,3,4,5-tetrahydro-1H-pyrido[4,3-b]indole], the inhibition at 1 µM is 36% in assay [1] (setting [7]); 89% on histamine receptor H1; 97% in assay [2]; 96% in assay [3]; 98% in assay [4]; 97% in assay [5]. For the same compound, the inhibition at 1 µM in assay [6] was 90%.

On to `C/C(=C\n1c2c(c3cc(C)ccc31)CN(C)CC2)c1ccc(F)c(F)c1` [Compound 230, (E)-5-(2-(3,4-difluorophenyl)prop-1-enyl)-2,8-dimethyl-2,3,4,5-tetrahydro-1H-pyrido[4,3-b]indole], for which the inhibition at 1 µM in assay [1] (setting [7]) stood at 44%; at histamine receptor H1 it was 35%; in assay [2], 97%; in assay [3] it was 100%; in assay [4], 96%; in assay [5] it was 98%. The inhibition at 1 µM in assay [6] is 93%.

Turning to `C/C(=C\n1c2c(c3ccc(F)cc31)CN(C)CC2)c1ccc(F)cc1` [Compound 227, (E)-7-fluoro-5-(2-(4-fluorophenyl)prop-1-enyl)-2-methyl-2,3,4,5-tetrahydro-1H-pyrido[4,3-b]indole], the inhibition at 1 µM in assay [1] (setting [7]) is 97%; at histamine receptor H1, 52%; in assay [2] it was 107%; in assay [3] it was 103%; in assay [4], 101%; in assay [5], 103%. The inhibition at 1 µM in assay [6] is 90%.

Take `C=C(Cn1c2c(c3cc(C)ccc31)CN(C)CC2)c1ccc(O)cc1` [Compound No. 355, 4-(3-(2,8-dimethyl-3,4-dihydro-1H-pyrido[4,3-b]indol-5(2H)-yl)prop-1-en-2-yl)phenol]: the inhibition at 1 µM is 81% in assay [1] (setting [8]); 116% on histamine receptor H1; 101% in assay [2]; 99% in assay [3]; 93% in assay [4]; 92% in assay [5]. Also, in assay [6], the inhibition at 1 µM came to 92%.

As to `C/C(=C/n1c2c(c3cc(C)ccc31)CN(C)CC2)c1ccc(Cl)c(Cl)c1` [Compound 247, (Z)-5-(2-(3,4-dichlorophenyl)prop-1-enyl)-2,8-dimethyl-2,3,4,5-tetrahydro-1H-pyrido[4,3-b]indole], the inhibition at 1 µM came to 28% in assay [1] (setting [7]); 75% on histamine receptor H1; 103% in assay [2]; 100% in assay [3]; 99% in assay [4]; 101% in assay [5]. Also, the inhibition at 1 µM in assay [6] is 101%.

Turning to `C=C(Cn1c2c(c3cccc(F)c31)CN(C)CC2)c1ccc(F)cc1` [Compound No. 353, 6-fluoro-5-(2-(4-fluorophenyl)allyl)-2-methyl-2,3,4,5-tetrahydro-1H-pyrido[4,3-b]indole], the inhibition at 1 µM came to 92% in assay [1] (setting [8]); 100% at histamine receptor H1; 100% in assay [2]; 97% in assay [3]; 93% in assay [4]; 98% in assay [5]. The inhibition at 1 µM in assay [6] came to 87%.

For the compound `C/C(=C\n1c2c(c3cc(C)ccc31)CN(C)CC2)c1ccc(Cl)c(Cl)c1` [Compound 231, (E)-5-(2-(3,4-dichlorophenyl)prop-1-enyl)-2,8-dimethyl-2,3,4,5-tetrahydro-1H-pyrido[4,3-b]indole], the inhibition at 1 µM in assay [1] (setting [7]) was found to be 40%; at histamine receptor H1, 58%; in assay [2], 97%; in assay [3], 98%; in assay [4], 97%; in assay [5], 101%. In assay [6], the inhibition at 1 µM was determined as 94%.

As for `CN1CCc2c(c3cc(Cl)c(Cl)cc3n2CC(C)(O)c2ccncc2)C1` (stereo not shown) [Compound 189, 1-(7,8-dichloro-2-methyl-3,4-dihydro-1H-pyrido[4,3-b]indol-5(2H)-yl)-2-(pyridin-4-yl)propan-2-ol], the inhibition at 1 µM amounted to 2% in assay [1] (setting [7]); 77% at histamine receptor H1; 87% in assay [2]; 91% in assay [3]; 85% in assay [4]; 96% in assay [5]. For the same compound, the inhibition at 1 µM in assay [6] stood at 82%.
